In general, EC50 refers to the concentration that produces a half-maximal response.

This test concerns Plasmodium falciparum. Briefly: Antimalarial activity against Plasmodium falciparum assessed as reduction in parasite growth after 72 hrs by LDH assay. In kind it is functional, organism-based.
Consider `CCC1(CC)CC(=O)N([C@H](c2cccnc2)[C@@H]2C(C)[C@H]2C(=O)N[C@H]2CC(C)(C)Oc3ccccc32)C(=N)N1` (stereo partly specified), for which the EC50 is 0.7 nM.
To `CC[C@]1(C)CC(=O)N([C@H](c2cncc(F)c2)[C@@H]2C[C@H]2C(=O)N[C@H]2C[C@H](C(F)(F)F)Oc3ccccc32)C(=N)N1` belongs 0.3 nM.
`CC[C@@]1(C)CC(=O)N([C@H](c2cncc(F)c2)[C@@H]2C[C@H]2C(=O)N[C@H]2CC(C)(C)Oc3ccccc32)C(=N)N1`: the concentration for a half-maximal effect (EC50) was found to be 0.6 nM.
Take `CC[C@]1(C)CC(=O)N([C@H](c2cncc(F)c2)[C@@H]2C[C@H]2C(=O)N[C@H]2CC(C)(C)Oc3ccc(F)cc32)C(=N)N1`: the EC50 was 0.3 nM.
To `CCC1(CC)CC(=O)N([C@H](CCCC(C)OC)[C@@H]2C[C@H]2C(=O)N[C@H]2CC(C)(C)Oc3ccccc32)C(=N)N1` (stereo partly specified) belongs 0.7 nM.
As to `CC1(C)CC(=O)N([C@H](c2cncc(Cl)c2)[C@@H]2C[C@H]2C(=O)N[C@H]2C[C@H](C(F)(F)F)Oc3ccccc32)C(=N)N1`, the EC50 is 0.5 nM.

For the origin of these results see ChEMBL document CHEMBL4834491, “Novel Compounds for Treating Malaria” (ACS Med Chem Lett, 2021).
